Measurements reported in patent publication US20160016929A1, “PRO-DRUG COMPOUNDS” (PROXIMAGEN LIMITED, priority 2013, published 2016).
Like-named read-outs stand apart in the source and are kept apart here.

How the values were obtained:
[1] = Solubility in aqueous solutions (Table 3); assay type: physicochemical; details: aqueous solution
Method: The skilled person understands that the pH of the gastrointestinal tract changes along its length. […] For more detail see, for example, Measurement of gastrointestinal pH profiles in normal ambulant human subjects, Gut. […] Improved solubility is expected to result in improved absorption, and therefore improved oral bioavailability.
In an embodiment prodrugs of the invention are administered intravenously. High prodrug solubility is advantageous in order to reduce the volume of solution administered to the patient, and to reduce the risk of damage to the circulatory system. Solubility of >10 mg/mL is preferred.

[2] = Pharmacokinetics: exposure of tonabersat in plasma after oral or intravenous dosing of prodrugs to rats; assay type: in vivo; details: fasted male Sprague Dawley rats; for % exposure of tonabersat after dosing the prodrugs of the invention via: Intravenous dosing (iv): compared to equimolar amount of tonabersat (0.78 mg/kg intravenous dosing); for % exposure of tonabersat after dosing the prodrugs of the invention via: Oral dosing (po): compared to equimolar amount of tonabersat (5.00 mg/kg oral dosing)
Method: Example Prodrugs of the claimed invention were dosed either intravenously or orally to fasted male Sprague Dawley rats. The rats underwent surgery for jugular vein cannulation 48 h prior to dosing. Following dosing, 0.25 mL blood samples were taken via the cannulae at 0, 5, 10, 20, 30, 45, 60, 120, 240 & 360 min in EDTA coated tubes. Tubes were spun at 13,000 rpm for 4 min and 100 ul of supernatant taken immediately and stored at −80° C. prior to analysis. Plasma samples were analysed by LC-MS/MS following extraction by protein precipitation, and levels of parent prodrug and tonabersat were measured by MRM (Multiple Reaction Monitoring) analysis against an extracted calibration curve of plasma samples spiked with the Example prodrug and tonabersat.
The exposure of tonabersat in plasma following dosing of the prodrugs of the invention was compared directly to the exposure observed following dosing of an equimolar amount of tonabersat under analogous assay conditions (5.00 mg/kg oral dosing or 0.78 mg/kg intravenous dosing). In an embodiment prodrugs of the present invention have >10% exposure of tonabersat obtained following either oral or intravenous dosing of the prodrug to a human or animal subject, compared to the exposure obtained from dosing an equimolar amount of tonabersat itself. In an embodiment the exposure of tonabersat following dosing of the prodrugs is >20%, or >30%, or >40%, or >50%, or preferably >70% compared to the exposure obtained from dosing an equimolar amount of tonabersat itself.

[3] = biological target: T1, hERG K+ channel (Homo sapiens, UniProt Q12809); test: hERG assay, IonWorks patch clamp electrophysiology; assay type: cell-based; details: human, pH 7.3; 11 uM; Chinese Hamster Lung cell line stably expressing hERG
T1 construct: a Chinese Hamster Lung cell line stably expressing the full length hERG channel; expressed in transfected cells; host or cells: Chinese Hamster Lung cell line
Method: (§1) Compounds of the invention were tested for inhibition of the human ether a go-go related gene (hERG) K^+ channel using IonWorks patch clamp electrophysiology. 8 Point concentration-response curves were generated on two occasions using 3-fold serial dilutions from the maximum assay concentration (33 uM). Electrophysiological recordings were made from a Chinese Hamster Lung cell line stably expressing the full length hERG channel. Single cell ion currents were measured in the perforated patch clamp configuration (100 ug/mL amphoterocin) at room temperature using an IonWorks Quattro instrument. The internal solution contained 140 mM KCl, 1 mM MgCl2, 1 mM EGTA and 20 mM HEPES and was buffered to pH 7.3. The external solution contained 138 mM NaCl, 2.7 mM KCl, 0.9 mM CaCl2, 0.5 mM MgCl2, 8 mM Na2HPO4 and 1.5 mM KH2PO4, and was buffered to pH 7.3. Cells were clamped at a holding potential of […] for 30 s and then stepped to +40 mV for 1 s. This was followed by a hyperpolarising step of 1 s to […] to evoke the hERG tail current. This sequence was repeated 5 times at a frequency of 0.25 Hz. Currents were measured from the tail step at the 5th pulse, and referenced to the holding current. Compounds were incubated for 6-7 min prior to a second measurement of the hERG signal using an identical pulse train. A minimum of 17 cells were required for each pIC50 curve fit. A control compound (quinidine) was used.

[4] = tested on: unique stereo-selective site in rat and human brains; details: cited from earlier work
[5] = tested on: unique stereo-selective site in rat and human brains; details: cited from earlier work; remark: listed apart in the source
[6] = tested on: high K+ evoked CSD; details: cats; cited from earlier work
[7] = tested on: high K+ evoked CSD; details: rats; cited from earlier work
[8] = biological target: T2, human ether a go-go related gene (hERG) K+ channel (Homo sapiens, UniProt Q12809); test: hERG assay, IonWorks patch clamp electrophysiology; assay type: cell-based; details: Chinese Hamster Lung cell line stably expressing hERG; IonWorks Quattro
T2 construct: a Chinese Hamster Lung cell line stably expressing the full length hERG channel; expressed in transfected cells; host or cells: Chinese Hamster Lung cell line
Method: as §1

T2 sequence (Q12809 whole entry): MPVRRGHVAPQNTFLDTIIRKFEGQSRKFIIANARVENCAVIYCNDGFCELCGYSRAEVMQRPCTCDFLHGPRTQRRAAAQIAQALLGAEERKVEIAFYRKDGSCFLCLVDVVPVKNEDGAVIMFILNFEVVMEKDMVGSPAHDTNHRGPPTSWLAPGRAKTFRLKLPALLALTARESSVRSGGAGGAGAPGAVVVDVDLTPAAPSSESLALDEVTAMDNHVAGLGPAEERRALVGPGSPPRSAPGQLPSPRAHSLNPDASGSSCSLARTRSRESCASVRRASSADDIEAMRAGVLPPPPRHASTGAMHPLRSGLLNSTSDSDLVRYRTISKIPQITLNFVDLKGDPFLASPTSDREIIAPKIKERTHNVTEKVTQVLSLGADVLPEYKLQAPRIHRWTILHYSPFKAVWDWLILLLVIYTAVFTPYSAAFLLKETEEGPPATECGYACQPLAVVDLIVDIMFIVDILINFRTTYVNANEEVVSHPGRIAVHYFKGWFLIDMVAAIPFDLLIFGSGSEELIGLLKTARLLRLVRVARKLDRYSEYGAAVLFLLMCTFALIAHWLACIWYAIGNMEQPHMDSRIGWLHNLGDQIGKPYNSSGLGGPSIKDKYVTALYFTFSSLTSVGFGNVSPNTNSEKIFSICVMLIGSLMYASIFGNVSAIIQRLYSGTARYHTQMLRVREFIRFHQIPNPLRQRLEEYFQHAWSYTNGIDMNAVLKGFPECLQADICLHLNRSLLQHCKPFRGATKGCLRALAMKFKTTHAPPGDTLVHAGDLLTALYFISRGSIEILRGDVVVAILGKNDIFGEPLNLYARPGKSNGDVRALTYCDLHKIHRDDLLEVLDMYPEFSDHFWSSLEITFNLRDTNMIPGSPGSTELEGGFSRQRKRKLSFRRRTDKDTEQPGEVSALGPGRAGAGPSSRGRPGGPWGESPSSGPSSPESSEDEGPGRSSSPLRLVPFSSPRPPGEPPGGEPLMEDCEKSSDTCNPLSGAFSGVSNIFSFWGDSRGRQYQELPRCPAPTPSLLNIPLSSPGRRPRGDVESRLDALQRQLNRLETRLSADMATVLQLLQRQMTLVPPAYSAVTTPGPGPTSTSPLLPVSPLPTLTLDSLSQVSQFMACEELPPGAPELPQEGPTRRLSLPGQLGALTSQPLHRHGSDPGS
T1 sequence (Q12809 whole entry): as above

Row | % exposure of tonabersat after dosing the prodrugs of the invention via: Intravenous dosing (iv) [2] | % exposure of tonabersat after dosing the prodrugs of the invention via: Oral dosing (po) [2] | solubility ([1]; aqueous buffer, pH not given) | Compound | inhibition at 11 µM [3] | IC50 [8] | other results
1 | <LLOQ | <LLOQ |  | CC(=O)c1ccc2c(c1)[C@H](NC(=O)c1ccc(F)c(Cl)c1)[C@H](OC(=O)N1CCC(N3CCCCC3)CC1)C(C)(C)O2.Cl [Example 18, (3S,4S)-6-Acetyl-4-[(3-chloro-4-fluorobenzene)amido]-2,2-dimethyl-3,4-dihydro-2H-1-benzopyran-3-yl 4-(piperidin-1-yl)piperidine-1-carboxylate hydrochloride] | 28% |  | solubility ([1]; pH 6.3, aqueous buffer): > 10000 µg/mL
2 |  |  |  | CC(=O)c1ccc2c(c1)[C@H](NC(=O)c1ccc(F)c(Cl)c1)[C@H](O)C(C)(C)O2 [Tonabersat, N-[(3S,4S)-6-Acetyl-3-hydroxy-2,2-dimethyl-3,4-dihydro-2H-1-benzopyran-4-yl]-3-chloro-4-fluorobenzamide] |  |  | binding affinity to brain site [4]: high affinity; binding affinity to brain site [5]: high affinity; inhibition of high K+ evoked CSD [6]: inhibits; inhibition of high K+ evoked CSD [7]: inhibits
3 | <LLOQ | <LLOQ | < 1000 µg/mL | CC(=O)c1ccc2c(c1)[C@H](NC(=O)c1ccc(F)c(Cl)c1)[C@H](OC(=O)N[C@H](C(=O)O)C(C)C)C(C)(C)O2 [Example 8, (2S)-2-[({[(3S,4S)-6-Acetyl-4-[(3-chloro-4-fluorobenzene)amido]-2,2-dimethyl-3,4-dihydro-2H-1-benzopyran-3-yl]oxy}carbonyl)amino]-3-methylbutanoic acid] |  |  | 
4 |  |  | < 1000 µg/mL | CC(=O)c1ccc2c(c1)[C@H](NC(=O)c1ccc(F)c(Cl)c1)[C@H](OC(=O)OCCN1CCOCC1)C(C)(C)O2 [Example 4, (3S,4S)-6-Acetyl-4-[(3-chloro-4-fluorobenzene)amido]-2,2-dimethyl-3,4-dihydro-2H-1-benzopyran-3-yl 2-(morpholin-4-yl)ethyl carbonate] |  | 9.8 µM | 
5 | <LLOQ | <LLOQ |  | CC(=O)c1ccc2c(c1)[C@H](NC(=O)c1ccc(F)c(Cl)c1)[C@H](OC(=O)N[C@@H](CCCCN)C(=O)O)C(C)(C)O2.Cl [Example 9, (2S)-2-[({[(3S,4S)-6-acetyl-4-[(3-chloro-4-fluorobenzene)amido]-2,2-dimethyl-3,4-dihydro-2H-1-benzopyran-3-yl]oxy}carbonyl)amino]-6-aminohexanoic acid hydrochloride] | 8% |  | solubility ([1]; pH 4.9, aqueous buffer): 10000 µg/mL
6 |  |  | < 1000 µg/mL | CC(=O)c1ccc2c(c1)[C@H](NC(=O)c1ccc(F)c(Cl)c1)[C@H](OC(=O)OCCN(C)C)C(C)(C)O2 [Example 1, (3S,4S)-6-Acetyl-4-[(3-chloro-4-fluorobenzene)amido]-2,2-dimethyl-3,4-dihydro-2H-1-benzopyran-3-yl 2-(dimethylamino)ethyl carbonate] | 25% | > 20 µM | 
7 |  |  |  | CC(=O)c1ccc2c(c1)[C@H](NC(=O)c1ccc(F)c(Cl)c1)[C@H](OC(=O)OCCN1CCCCC1)C(C)(C)O2 [Example 30, (3S,4S)-6-Acetyl-4-[(3-chloro-4-fluorobenzene)amido]-2,2-dimethyl-3,4-dihydro-2H-1-benzopyran-3-yl 2-(piperidin-1-yl)ethyl carbonate] |  | 7 µM | 

Row | Compound | % exposure of tonabersat after dosing the prodrugs of the invention via: Intravenous dosing (iv) [2] | % exposure of tonabersat after dosing the prodrugs of the invention via: Oral dosing (po) [2] | solubility ([1]; aqueous buffer, pH not given) | inhibition at 11 µM [3] | IC50 [8] | other results
8 | CC(=O)c1ccc2c(c1)[C@H](NC(=O)c1ccc(F)c(Cl)c1)[C@H](OC(=O)OC[C@H](N)C(=O)O)C(C)(C)O2.Cl [Example 5, (2S)-3-[({[(3S,4S)-6-Acetyl-4-[(3-chloro-4-fluorobenzene)amido]-2,2-dimethyl-3,4-dihydro-2H-1-benzopyran-3-yl]oxy}carbonyl)oxy]-2-aminopropanoic acid hydrochloride] | 37% | 39% |  |  |  | 
